Measured values published in patent US4220755A, “Fortimicin B derivatives and process for production thereof” (Abbott Laboratories, priority 1976, dated 1980).
Values after ≈ are worked out from the molar mass of the structure shown. Where two headings read alike, the source gives them in different places.

Assays:
[1] = system: Klebsiella pneumoniae 3020 Y-60; test: MIC, agar dilution method, pH 7.2; format: cell-based; conditions: 3020Y60; pH 7.2; Klebsiella pneumoniae 3020 Y-60; 1**: gentamicin, producing adenylsynthetase; read-out: Minimum inhibition concentration (MIC)
Procedure: (§1) Measurement was carried out according to the agar dilution method, using a medium of pH 8.0, or the Japanese Antibiotic Medicament Standard, using a medium of pH 7.2 Units are in mcg/ml.
(§2) **1: gentamicin, producing adenylsynthetase.

Escherichia coli 76-2 = test: MIC, agar dilution method, pH 7.2; format: cell-based
Procedure: as §1, §2

[2] = system: Escherichia coli R12 Z-338; test: MIC, agar dilution method, pH 7.2; format: cell-based
Procedure: as §1, §2

[3] = system: Escherichia coli 57R/W677; test: MIC, agar dilution method, pH 7.2; format: cell-based; conditions: 57R/W677, pH 7.2, read-out: Minimum inhibition concentration (MIC)
Procedure: as §1, §2

[4] = system: Eschericia coli KY4271 ATCC26; test: MIC, agar dilution method, pH 8.0; format: cell-based; conditions: Escherichia coli, ATCC26; pH 8.0; E. coli KY4271; read-out: Minimum inhibition concentration (MIC), EC
Procedure: as §1
E.C.: Eschericia coli KY4271 ATCC26

[5] = system: Pseudomonas aeruginosa R5 KY8512; test: MIC, agar dilution method, pH 7.2; format: cell-based; conditions: R5KY8512, pH 7.2, P. aeruginosa R5 KY8512, 6**: neomycin, producing phosphotransferase type I and type II, read-out: Minimum inhibition concentration (MIC)
Procedure: as §1
6: neomycin, producing phosphotransferase type I and type II.

Escherichia coli NIHTC-2 = test: MIC, agar dilution method, pH 7.2; format: cell-based
Procedure: as §1

[6] = system: Salmonella enteritidis G-14; test: MIC, agar dilution method, pH 7.2; format: cell-based; conditions: Salmonella enterica
Procedure: as §1

[7] = system: Staphylococcus aureus 209-P; test: MIC, agar dilution method, pH 7.2; format: cell-based; conditions: pH 7.2; Staphylococcus aureus 209-P; read-out: Minimum inhibition concentration (MIC)
Procedure: as §1

Shigella sonnei ATCC9290 = test: MIC, agar dilution method, pH 7.2; format: cell-based; conditions: read-out: Minimum inhibition concentration (MIC)
Procedure: as §1

[8] = system: Klebsiella pneumoniae KY4274; test: MIC, agar dilution method, pH 7.2; format: cell-based
Procedure: as §1

[9] = system: Eschericihia coli GN2411-5; test: MIC, agar dilution method, pH 7.2; format: cell-based; conditions: Escherichia coli, GN2411, pH 7.2, read-out: Minimum inhibition concentration (MIC)
Procedure: as §1

[10] = system: Pseudomonas aeruginosa BMH# 1; test: MIC, agar dilution method, pH 7.2; format: cell-based; conditions: pH 7.2; Pseudomonas aeruginosa BMH# 1; read-out: Minimum inhibition concentration (MIC)
Procedure: as §1

[11] = system: Staphylococcus aureus Smith (A); test: MIC, agar dilution method, pH 7.2; format: cell-based; conditions: pH 7.2; Staphylococcus aureus Smith (A); read-out: Minimum inhibition concentration (MIC)
Procedure: as §1

Proteus vulgaris JJ = test: MIC, agar dilution method, pH 7.2; format: cell-based
Procedure: as §1

[12] = system: Pseudomonas aeruginosa UCLA 4184; test: MIC, agar dilution method, pH 7.2; format: cell-based; conditions: UCLA4184; pH 7.2; Pseudomonas aeruginosa UCLA 4184; read-out: Minimum inhibition concentration (MIC)
Procedure: as §1

[13] = system: Escherichia coli R18 KY8321; test: MIC, agar dilution method, pH 7.2; format: cell-based; conditions: R18KY8321, E. coli R18 KY8321, 2**: gentamicin, producing adenylsynthetase and neomycin phosphotransferase type II, read-out: Minimum inhibition concentration (MIC)
Procedure: as §1
2: gentamicin, producing adenylsynthetase and neomycin phosphotransferase

Bacillus subtilis KY4273 = test: MIC, agar dilution method, pH 8.0; format: cell-based; conditions: pH 8.0; Bacillus subtilis KY4273; read-out: Minimum inhibition concentration (MIC), BS
Procedure: as §1
B.S.: Bacillus subtilis KY4273

[14] = system: Staphylococcus a ureus 226; test: MIC, agar dilution method, pH 7.2; format: cell-based, Staphylococcus aureus; conditions: pH 7.2; Staphylococcus aureus 226; read-out: Minimum inhibition concentration (MIC)
Procedure: as §1

[15] = system: Escherichia coli R19 KY8348; test: MIC, agar dilution method, pH 7.2; format: cell-based; conditions: R19KY8348, pH 7.2, E. coli R19 KY8348, 4**: gentamicin, producing acetyltransferase type I, read-out: Minimum inhibition concentration (MIC)
Procedure: as §1
(§3) 4: gentamicin, producing acetyltransferase type I.

[16] = system: Pseudomonas aeruginosa R4 KY8511; test: MIC, agar dilution method, pH 7.2; format: cell-based; conditions: R4KY8511, pH 7.2, P. aeruginosa R4 KY8511, 4**: gentamicin, producing acetyltransferase type I, read-out: Minimum inhibition concentration (MIC)
Procedure: as §1, §3

[17] = system: Klebsiella pneumoniae KY4275 ATCC10031; test: MIC, agar dilution method, pH 8.0; format: cell-based; conditions: ATCC10031; pH 8.0; Klebsiella pneumoniae KY4275; read-out: Minimum inhibition concentration (MIC), KP
Procedure: as §1
K.P.: Klebsiella pneumoniae KY4275 ATCC10031.

Eschericihia coli 3100 = test: MIC, agar dilution method, pH 7.2; format: cell-based, Escherichia coli; conditions: Escherichia coli; pH 7.2; E. coli 3100; read-out: Minimum inhibition concentration (MIC)
Procedure: as §1

[18] = system: Escherichia coli R20 KY8349; test: MIC, agar dilution method, pH 7.2; format: cell-based
Procedure: as §1
5: neomycin, producing phosphotransferase type I.

[19] = system: Shigella sonnei KY4281 ATCC9290; test: MIC, agar dilution method, pH 8.0; format: cell-based; conditions: ATCC9290; pH 8.0; Shigella sonnei KY4281; read-out: Minimum inhibition concentration (MIC), SS
Procedure: as §1

[20] = system: Proteus vulgaris KY4277 ATCC6897; test: MIC, agar dilution method, pH 8.0; format: cell-based; conditions: ATCC6897; pH 8.0; Proteus vulgaris KY4277; read-out: Minimum inhibition concentration (MIC), PV
Procedure: as §1

[21] = system: Pseudomonas aeruginosa R9 KY8516; test: MIC, agar dilution method, pH 7.2; format: cell-based; conditions: R9KY8516, pH 7.2, P. aeruginosa R9 KY8516, 3**: kanamycin, producing acetyltransferase, read-out: Minimum inhibition concentration (MIC)
Procedure: as §1
(§4) 3: kanamycin, producing acetyltransferase.

[22] = system: Escherichia coli R17 Z343; test: MIC, agar dilution method, pH 7.2; format: cell-based
Procedure: as §1, §4

Serratia marcescens 1065 = test: MIC, agar dilution method, pH 7.2; format: cell-based; conditions: Serratia marcescens, 1065, pH 7.2, read-out: Minimum inhibition concentration (MIC)
Procedure: as §1, §4

Providencia sp 164 = test: MIC, agar dilution method, pH 7.2; format: cell-based; conditions: pH 7.2; Providencia sp 164; 7**: gentamicin, producing acetyltransferase type II; read-out: Minimum inhibition concentration (MIC)
Procedure: as §1
7: gentamicin, producing acetyltransferase type II.

[23] = system: Salmonella typhosa KY4278 ATCC9992; test: MIC, agar dilution method, pH 8.0; format: cell-based; conditions: Salmonella enterica, pH 8, read-out: Minimum inhibition concentration (MIC), ST
Procedure: as §1
S.T.: Salmonella typhosa KY4278 ATCC9992

[24] = system: Staphylococcus aureus KY4279 ATCC6538P; test: MIC, agar dilution method, pH 8.0; format: cell-based; conditions: pH 8.0, Staphylococcus aureus KY4279, read-out: Minimum inhibition concentration (MIC), SA
Procedure: as §1
S.A.: Staphylococcus aureus KY4279 ATCC6538P

SMILES	MIC [1]	MIC [3]	MIC [4]	MIC [5]	MIC [7]	MIC (Shigella sonnei ATCC9290)	MIC [9]	MIC [10]	MIC [11]	MIC [12]	MIC [13]	MIC (Bacillus subtilis KY4273)	MIC [14]	MIC [15]	MIC [16]	MIC [17]	MIC (Eschericihia coli 3100)	MIC [19]	MIC [20]	MIC [21]	other results
CO[C@H]1[C@@H](O)[C@H](N)[C@@H](O[C@H]2O[C@H]([C@H](C)N)CC[C@H]2N)[C@H](O)[C@@H]1N(C)CC(O)CCN (stereo partly drawn) [Compound 29, 4-N-[(R,S)-4-amino-2-hydroxybutyl]fortimicin B]	25 µg/mL (≈ 57.4 µM)	12.5 µg/mL (≈ 28.7 µM)	0.16 µg/mL (≈ 0.367 µM)	12.5 µg/mL (≈ 28.7 µM)	0.4 µg/mL (≈ 0.918 µM)	6.25 µg/mL (≈ 14.3 µM)	6.25 µg/mL (≈ 14.3 µM)	12.5 µg/mL (≈ 28.7 µM)	0.4 µg/mL (≈ 0.918 µM)	25 µg/mL (≈ 57.4 µM)	12.5 µg/mL (≈ 28.7 µM)	0.04 µg/mL (≈ 0.0918 µM)	0.78 µg/mL (≈ 1.79 µM)	> 100 µg/mL	> 100 µg/mL	0.63 µg/mL (≈ 1.45 µM)	12.5 µg/mL (≈ 28.7 µM)	0.63 µg/mL (≈ 1.45 µM)	0.32 µg/mL (≈ 0.735 µM)	50 µg/mL (≈ 115 µM)	MIC (Escherichia coli 76-2; Escherichia coli, 762, pH 7.2, read-out: Minimum inhibition concentration (MIC)): 3.12 µg/mL (≈ 7.16 µM); MIC ([2]; R12Z338, pH 7.2, E. coli R12 Z-338, 1**: gentamicin, producing adenylsynthetase, read-out: Minimum inhibition concentration (MIC)): 12.5 µg/mL (≈ 28.7 µM); MIC (Escherichia coli NIHTC-2; Escherichia coli, NIHTC2, pH 7.2, read-out: Minimum inhibition concentration (MIC)): 3.12 µg/mL (≈ 7.16 µM); MIC ([6]; ENTERITIDIS, pH 7.2, read-out: Minimum inhibition concentration (MIC)): 6.25 µg/mL (≈ 14.3 µM); MIC ([8]; Klebsiella pneumoniae, KY4274, pH 7.2, read-out: Minimum inhibition concentration (MIC)): 6.25 µg/mL (≈ 14.3 µM); MIC (Proteus vulgaris JJ; Proteus vulgaris, pH 7.2, read-out: Minimum inhibition concentration (MIC)): 3.12 µg/mL (≈ 7.16 µM); MIC ([18]; R20KY8349, pH 7.2, E. coli R20 KY8349, 5**: neomycin, producing phosphotransferase type I, read-out: Minimum inhibition concentration (MIC)): 3.12 µg/mL (≈ 7.16 µM); MIC ([22]; R17Z343, pH 7.2, read-out: Minimum inhibition concentration (MIC)): 3.12 µg/mL (≈ 7.16 µM); MIC (Serratia marcescens 1065): 6.25 µg/mL (≈ 14.3 µM); MIC (Providencia sp 164): 25 µg/mL (≈ 57.4 µM); MIC [23]: 0.16 µg/mL (≈ 0.367 µM); MIC [24]: 0.08 µg/mL (≈ 0.184 µM)
CNCC[C@H](O)CN(C)[C@H]1[C@@H](O)[C@H](O[C@H]2O[C@H]([C@H](C)N)CC[C@H]2N)[C@@H](N)[C@H](O)[C@@H]1OC [Compound 28, 4-N-[(S)-4-methylamino-2-hydroxybutyl]fortimicin B]	12.5 µg/mL (≈ 27.8 µM)	12.5 µg/mL (≈ 27.8 µM)	0.08 µg/mL (≈ 0.178 µM)	12.5 µg/mL (≈ 27.8 µM)	0.78 µg/mL (≈ 1.73 µM)	6.25 µg/mL (≈ 13.9 µM)	6.25 µg/mL (≈ 13.9 µM)	12.5 µg/mL (≈ 27.8 µM)	0.4 µg/mL (≈ 0.89 µM)	50 µg/mL (≈ 111 µM)	12.5 µg/mL (≈ 27.8 µM)	0.04 µg/mL (≈ 0.089 µM)	0.4 µg/mL (≈ 0.89 µM)	> 100 µg/mL	> 100 µg/mL	0.32 µg/mL (≈ 0.712 µM)	12.5 µg/mL (≈ 27.8 µM)	0.63 µg/mL (≈ 1.4 µM)	0.32 µg/mL (≈ 0.712 µM)	50 µg/mL (≈ 111 µM)	MIC (Escherichia coli 76-2; Escherichia coli, 762, pH 7.2, E. coli 76-2, 1**: gentamicin, producing adenylsynthetase, read-out: Minimum inhibition concentration (MIC)): 3.12 µg/mL (≈ 6.94 µM); MIC ([2]; R12Z338, pH 7.2, read-out: Minimum inhibition concentration (MIC)): 6.25 µg/mL (≈ 13.9 µM); MIC (Escherichia coli NIHTC-2; NIHTC2, pH 7.2, Escherichia coli NIHTC-2, read-out: Minimum inhibition concentration (MIC)): 1.56 µg/mL (≈ 3.47 µM); MIC ([6]; pH 7.2, Salmonella enteritidis G-14, read-out: Minimum inhibition concentration (MIC)): 3.12 µg/mL (≈ 6.94 µM); MIC ([8]; pH 7.2, Klebsiella pneumoniae KY4274, read-out: Minimum inhibition concentration (MIC)): 3.12 µg/mL (≈ 6.94 µM); MIC (Proteus vulgaris JJ; pH 7.2, Proteus vulgaris JJ, read-out: Minimum inhibition concentration (MIC)): 3.12 µg/mL (≈ 6.94 µM); MIC ([18]; R20KY8349, pH 7.2, read-out: Minimum inhibition concentration (MIC)): 1.25 µg/mL (≈ 2.78 µM); MIC ([22]; R17Z343, pH 7.2, E. coli R17 Z343, 3**: kanamycin, producing acetyltransferase, read-out: Minimum inhibition concentration (MIC)): 3.12 µg/mL (≈ 6.94 µM); MIC (Serratia marcescens 1065): 6.25 µg/mL (≈ 13.9 µM); MIC (Providencia sp 164): 25 µg/mL (≈ 55.6 µM); MIC [23]: 0.08 µg/mL (≈ 0.178 µM); MIC [24]: 0.04 µg/mL (≈ 0.089 µM)
